Key:
AMARE [1] = assay: Pre-emergence herbicidal action against AMARE; format: in vivo, Amaranthus retroflexus; conditions: Amaranthus retroflexus, 504 h, scored visually after 3 weeks vs untreated controls, 100% = plants have died, 0% = like control plants
How it was run: (§1)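 Sandy loam pots, seeds covered with soil, then surface-treated with WP or EC formulations at 600–800 l/ha water plus 0.2% wetting agent. Greenhouse, 3 weeks. Percent damage vs untreated controls.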

DIGSA [2] = assay: Pre-emergence herbicidal action against DIGSA; format: in vivo, Digitaria sanguinalis; conditions: Digitaria sanguinalis, 504 h; for pest or weed control at 20 g/ha: dosage 20 g/ha; for pest or weed control at 80 g/ha: dosage 80 g/ha
How it was run: as §1

ECHCG [3] = assay: Pre-emergence herbicidal action against ECHCG; format: in vivo, Echinochloa crus-galli; conditions: Echinochloa crus-galli, 504 h
How it was run: as §1

MATIN [4] = assay: Post-emergence herbicidal action against MATIN; format: in vivo, Matricaria inodora; conditions: Tripleurospermum inodorum, 504 h; for pest or weed control at 5 g/ha: dosage 5 g/ha; for pest or weed control at 20 g/ha: dosage 20 g/ha
How it was run: (§2)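 Visual % rating (0% = as untreated, 100% = dead) ~3 wk after spraying one-leaf-stage plants grown in sandy loam; WP/EC in water at 600–800 l/ha, 0.2% wetting agent.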

ABUTH [5] = assay: Post-emergence herbicidal action against ABUTH; format: in vivo, Abutilon theophrasti; conditions: Abutilon theophrasti, 504 h, visual assessment about 3 weeks after treatment vs untreated controls; for pest or weed control at 5 g/ha: dosage 5 g/ha; for pest or weed control at 20 g/ha: dosage 20 g/ha
How it was run: as §2

ECHCG [6] = assay: Post-emergence herbicidal action against ECHCG; format: in vivo, Echinochloa crus-galli; conditions: Echinochloa crus-galli, 504 h, dosage 20 g/ha
How it was run: as §2

VERPE [7] = assay: Pre-emergence herbicidal action against VERPE; format: in vivo, Veronica persica; conditions: Veronica persica, 504 h, dosage 80 g/ha
How it was run: as §1

SETVI [8] = assay: Post-emergence herbicidal action against SETVI; format: in vivo, Setaria viridis; conditions: Setaria viridis, 504 h; for pest or weed control at 20 g/ha: dosage 20 g/ha
How it was run: as §2

DIGSA [9] = assay: Post-emergence herbicidal action against DIGSA; format: in vivo, Digitaria sanguinalis; conditions: Digitaria sanguinalis, 504 h, 20 g/ha
How it was run: as §2

VIOTR [10] = assay: Pre-emergence herbicidal action against VIOTR; format: in vivo, Viola tricolor; conditions: Viola tricolor, 504 h; for pest or weed control at 20 g/ha: dosage 20 g/ha; for pest or weed control at 80 g/ha: dosage 80 g/ha
How it was run: as §1

SETVI [11] = assay: Pre-emergence herbicidal action against SETVI; format: in vivo, Setaria viridis; conditions: Setaria viridis, 504 h; for pest or weed control at 20 g/ha: dosage 20 g/ha; for pest or weed control at 80 g/ha: dosage 80 g/ha
How it was run: as §1

PHBPU [12] = assay: Pre-emergence herbicidal action against PHBPU; format: in vivo, Pharbitis purpurea; conditions: Ipomoea purpurea, 504 h, dosage 80 g/ha
How it was run: as §1

VIOTR [13] = assay: Post-emergence herbicidal action against VIOTR; format: in vivo, Viola tricolor; conditions: Viola tricolor, 504 h
How it was run: as §2

MATIN [14] = assay: Pre-emergence herbicidal action against MATIN; format: in vivo, Matricaria inodora; conditions: Tripleurospermum inodorum, 504 h; for pest or weed control at 20 g/ha: dosage 20 g/ha; for pest or weed control at 80 g/ha: dosage 80 g/ha
How it was run: as §1

AMARE [15] = assay: Post-emergence herbicidal action against AMARE; format: in vivo, Amaranthus retroflexus; conditions: Amaranthus retroflexus, 504 h, 20 g/ha, visual assessment about 3 weeks after treatment, 100% = plants have died, 0% = like control plants
How it was run: as §2

VERPE [16] = assay: Post-emergence herbicidal action against VERPE; format: in vivo, Veronica persica; conditions: Veronica persica, 504 h
How it was run: as §2

ABUTH [17] = assay: Pre-emergence herbicidal action against ABUTH; format: in vivo, Abutilon theophrasti; conditions: Abutilon theophrasti, 504 h; for pest or weed control at 80 g/ha: scored visually after 3 weeks vs untreated controls (100% = plants have died, 0% = like control plants); for pest or weed control at 20 g/ha: dosage 20 g/ha, scored visually after 3 weeks vs untreated controls, 100% = plants have died, 0% = like control plants, read-out: Pre-emergence action against ABUTH (herbicidal activity in percent)
How it was run: as §1

POLCO = assay: Pre-emergence herbicidal action against POLCO; format: in vivo, Polygonum convolvulus; conditions: Fallopia convolvulus, 504 h, dosage 80 g/ha
How it was run: as §1

PHBPU [18] = assay: Post-emergence herbicidal action against PHBPU; format: in vivo, Pharbitis purpurea; conditions: Ipomoea purpurea, 504 h, dosage 20 g/ha
How it was run: as §2

Compound: CNC(=O)c1c(C(F)F)ccc(C(=O)Nc2nnnn2C)c1C1CC1 [Example 1-304]
- pest or weed control at 20 g/ha (AMARE [1]): 100%
- pest or weed control at 80 g/ha (AMARE [1]): 100%
- pest or weed control at 20 g/ha (DIGSA [2]): 100%
- pest or weed control at 80 g/ha (DIGSA [2]): 100%
- pest or weed control at 80 g/ha (ECHCG [3]): 100%
- pest or weed control at 5 g/ha (MATIN [4]): 90%
- pest or weed control at 20 g/ha (MATIN [4]): 90%
- pest or weed control at 5 g/ha (ABUTH [5]): 90%
- pest or weed control at 20 g/ha (ABUTH [5]): 90%
- pest or weed control at 20 g/ha (ECHCG [6]): 90%
- pest or weed control at 80 g/ha (VERPE [7]): 100%
- pest or weed control at 5 g/ha (SETVI [8]; dosage 5 g/ha): 90%
- pest or weed control at 20 g/ha (SETVI [8]): 90%
- pest or weed control at 20 g/ha (DIGSA [9]): 90%
- pest or weed control at 20 g/ha (VIOTR [10]): 100%
- pest or weed control at 80 g/ha (VIOTR [10]): 100%
- pest or weed control at 20 g/ha (SETVI [11]): 90%
- pest or weed control at 80 g/ha (SETVI [11]): 100%
- pest or weed control at 80 g/ha (PHBPU [12]): 80%
- pest or weed control at 5 g/ha (VIOTR [13]): 80%
- pest or weed control at 20 g/ha (VIOTR [13]): 90%
- pest or weed control at 20 g/ha (MATIN [14]): 90%
- pest or weed control at 80 g/ha (MATIN [14]): 100%
- pest or weed control at 20 g/ha (AMARE [15]): 90%
- pest or weed control at 5 g/ha (VERPE [16]; 5 g/ha): 80%
- pest or weed control at 20 g/ha (VERPE [16]): 80%
- pest or weed control at 80 g/ha (ABUTH [17]): 100%
- pest or weed control at 20 g/ha (ABUTH [17]): 100%
- pest or weed control at 80 g/ha (POLCO): 80%

Compound: CCNC(=O)c1c(C(F)F)ccc(C(=O)Nc2nnnn2C)c1C1CC1 [Example 1-305]
- pest or weed control at 20 g/ha (AMARE [1]): 100%
- pest or weed control at 80 g/ha (AMARE [1]): 100%
- pest or weed control at 20 g/ha (DIGSA [2]): 100%
- pest or weed control at 80 g/ha (DIGSA [2]): 100%
- pest or weed control at 20 g/ha (ECHCG [3]; 20 g/ha): 80%
- pest or weed control at 80 g/ha (ECHCG [3]): 100%
- pest or weed control at 5 g/ha (MATIN [4]): 90%
- pest or weed control at 20 g/ha (MATIN [4]): 90%
- pest or weed control at 5 g/ha (ABUTH [5]): 90%
- pest or weed control at 20 g/ha (ABUTH [5]): 90%
- pest or weed control at 20 g/ha (ECHCG [6]): 90%
- pest or weed control at 80 g/ha (VERPE [7]): 100%
- pest or weed control at 20 g/ha (SETVI [8]): 90%
- pest or weed control at 20 g/ha (DIGSA [9]): 80%
- pest or weed control at 20 g/ha (VIOTR [10]): 100%
- pest or weed control at 80 g/ha (VIOTR [10]): 100%
- pest or weed control at 20 g/ha (PHBPU [18]): 90%
- pest or weed control at 20 g/ha (SETVI [11]): 80%
- pest or weed control at 80 g/ha (SETVI [11]): 100%
- pest or weed control at 80 g/ha (PHBPU [12]): 90%
- pest or weed control at 5 g/ha (VIOTR [13]): 90%
- pest or weed control at 20 g/ha (VIOTR [13]): 90%
- pest or weed control at 20 g/ha (MATIN [14]): 100%
- pest or weed control at 80 g/ha (MATIN [14]): 100%
- pest or weed control at 20 g/ha (AMARE [15]): 90%
- pest or weed control at 20 g/ha (VERPE [16]): 80%
- pest or weed control at 80 g/ha (ABUTH [17]): 100%
- pest or weed control at 20 g/ha (ABUTH [17]): 100%
- pest or weed control at 80 g/ha (POLCO): 80%
